For 19 compounds, IC50 and LD50 results are on record in patent publication EP0558245A1, “Heterobicyclic compounds as antagogists of alpha-1 adrenergic and SHT1A receptors” (priority 1992, dated 1993).

Counter-ions that a name gives are not always drawn. Like-named read-outs stand apart in the source and are kept apart here.

One series deals with α₁ receptors. As to the kind of experiment: [3H]prazosin binding (α1 receptors), rat cerebral cortex membranes. The following applies: rat cerebral cortex crude membranes, [3H]prazosin 0.35 nM, 25°C 30 min; read-out: Receptor Binding IC50 (nM) α1.
The target of the next series is T1, 5HT1A receptors (Rattus norvegicus, UniProt P19327).
T1 construct: Rat hippocampi were homogenized; from tissue; host or cells: rat hippocampus membranes
T1 sequence (P19327 1-422): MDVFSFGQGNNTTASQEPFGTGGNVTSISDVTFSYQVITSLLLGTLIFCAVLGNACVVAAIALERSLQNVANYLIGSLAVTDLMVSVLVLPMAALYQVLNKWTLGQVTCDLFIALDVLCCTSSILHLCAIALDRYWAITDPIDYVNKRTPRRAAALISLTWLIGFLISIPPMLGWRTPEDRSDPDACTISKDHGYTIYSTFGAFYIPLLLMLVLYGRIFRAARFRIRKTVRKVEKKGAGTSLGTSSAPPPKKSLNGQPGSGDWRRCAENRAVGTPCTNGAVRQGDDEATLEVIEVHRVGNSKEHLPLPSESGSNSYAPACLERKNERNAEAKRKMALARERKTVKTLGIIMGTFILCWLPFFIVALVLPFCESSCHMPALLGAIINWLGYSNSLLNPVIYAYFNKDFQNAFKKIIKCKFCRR
Description: [3H]8-OH-DPAT binding (5HT1A receptors), rat hippocampus membranes.

Series [1] can be described thus: Acute toxicity in mice after intraperitoneal and oral administration. The following applies: mouse, in vivo, female albino Swiss mice, mortality recorded 7 days after administration. As to the method:
Male Sprague Dawley rats [Crl: CD' BR] of 200-300 g b.w., female Albino Swiss mice [Crl: CD-1 (ICR) BR] 20-30 g b.w., and male Beagle dogs (10-12 kg b.w.) were obtained from Charles River, Italy and Nossan (Correzzana, Milan, Italy), respectively. Animals were housed with free access to food and water and maintained on forced light-dark cycle at 22-24°C until the day of experiments.
The acute toxicity of synthesized compounds was evaluated in female albino Swiss mice after intraperitoneal and oral administration. Four logarithmic scaled doses of the compounds were dissolved or suspended in 0.5% Methocel and administered in a volume of 10 ml/kg to groups of 4 mice/dose. Mortality was recorded 7 days after the administration. Data analysis: the LD₅₀ values and their fiducial limits were calculated according to the method of Weil (Biometrics, 8, 249, 1952).

The mark [2] stands for this setting: rat hippocampus crude membranes, [3H]8-OH-DPAT 1.0 nM, 25°C 30 min, read-out: Receptor Binding IC50 (nM) 5-HT1a.
Setting [3] is: ip, intraperitoneal, read-out: Acute Toxicity in Mice LD50 (mg/kg) i.p.
Where [4] appears, read: oral, read-out: Acute Toxicity in Mice LD50 (mg/kg) p.o.

Broadly, the IC50 is the concentration that gives 50% inhibition. With `COc1ccccc1N1CCN(CCCC[S+]([O-])c2cccc3c(=O)c(C)c(-c4ccccc4)oc23)CC1.CS(=O)(=O)O` (centres unmarked) [Example 73, 8-{4-[4-(2-methoxyphenyl)-1-piperazinyl]-butylsulphinyl}-3-methyl-4-oxo-2-phenyl-4H-1-benzopyran methanesulphonate], the 50% inhibitory concentration (IC50) on α₁ receptors came out at 6 nM; at 5HT1A receptors (setting [2]) it was 89 nM. Besides, the LD50 at 168 h in series [1] (setting [3]) worked out at 202 mg/kg; in series [1] (setting [4]), 462 mg/kg.

With `Cc1c(-c2ccccc2)oc2c(C(=O)NCCCN3CCN(c4ccccc4O)CC3)cccc2c1=O` [Example 59, 8-{3-[4-(2-hydroxyphenyl)-1-piperazinyl]-propylcarbamoyl}-3-methyl-4-oxo-2-phenyl-4H-1-benzopyran], the IC50 on α₁ receptors worked out at 5 nM; at 5HT1A receptors (setting [2]), 9 nM. Besides, the LD50 at 168 h in series [1] (setting [3]) is over 500 mg/kg; in series [1] (setting [4]) it was 278 mg/kg.

Regarding `Cc1ccccc1N1CCN(CC(O)c2cccc3c(=O)c(C)c(-c4ccccc4)oc23)CC1.Cl` (centres unmarked) [Example 18, 8-{1-hydroxy-2-[4-(2-methylphenyl)-1-piperazinyl]-ethyl}-3-methyl-4-oxo-2-phenyl-4H-1-benzopyran hydrochloride], the IC50 on α₁ receptors was 270 nM; at 5HT1A receptors (setting [2]) it was over 1000 nM. Moreover, the LD50 at 168 h in series [1] (setting [3]) was 457 mg/kg; in series [1] (setting [4]), 3000 mg/kg.

Take `Cc1c(-c2ccccc2)oc2c(C(=O)NCCCN3CCC(n4c(=O)[nH]c5ccccc54)CC3)cccc2c1=O` [Example 57, 8-{3-[4-(2-oxo-1-benzimidazolinyl)-1-piperidinyl]-propylcarbamoyl-}-3-methyl-4-oxo-2-phenyl-4H-1-benzopyran]: the IC50 at α₁ receptors was 69 nM; on 5HT1A receptors (setting [2]) it was over 1000 nM. Besides, the LD50 at 168 h is 500 mg/kg in series [1] (setting [3]) and over 2000 mg/kg in series [1] (setting [4]).

For the compound `COc1ccccc1N1CCN(CCN(C)S(=O)(=O)c2cccc3c(=O)c(C)c(-c4ccccc4)oc23)CC1.Cl` [Example 49, 8-{N-methyl-2-[4-(2-methoxyphenyl)-1-piperazinyl]-ethylsulphamoyl}-3-methyl-4-oxo-2-phenyl-4H-1-benzopyran hydrochloride], the half-maximal inhibitory concentration (IC50) came to 152 nM at α₁ receptors and 9 nM on 5HT1A receptors (setting [2]). For the same compound, the LD50 at 168 h is 432 mg/kg in series [1] (setting [3]) and over 2000 mg/kg in series [1] (setting [4]).

On to `COc1ccccc1N1CCN(CCNS(=O)(=O)c2cccc3c(=O)c(C)c(-c4ccccc4)oc23)CC1.Cl` [Example 48, 8-{2-[4-(2-methoxyphenyl)-1-piperazinyl]-ethylsulphamoyl}-3-methyl-4-oxo-2-phenyl-4H-1-benzopyran hydrochloride], for which the IC50 on α₁ receptors amounted to 104 nM; at 5HT1A receptors (setting [2]), 5 nM. Also, the values for the LD50 at 168 h in series [1] (setting [3]) and in series [1] (setting [4]) were 500 mg/kg and 1910 mg/kg, respectively.

In the case of `COc1ccccc1N1CCN(CCO/N=C/c2cccc3c(=O)c(C)c(-c4ccccc4)oc23)CC1` [Example 70, E-8-{2-[4-(2-methoxyphenyl)-1-piperazinyl]-ethoxyimino-methyl}-3-methyl-4-oxo-2-phenyl-4H-1-benzopyran], the IC50 at α₁ receptors is 53 nM; on 5HT1A receptors (setting [2]) it was 85 nM. In addition, the results for the LD50 at 168 h in series [1] (setting [3]) and in series [1] (setting [4]) were over 500 mg/kg and 1870 mg/kg, respectively.

`CS(=O)(=O)O.Cc1c(-c2ccccc2)oc2c(C(=O)NCCCN3CCC(c4ccccc4)(c4ccccc4)CC3)cccc2c1=O` [Example 55, 8-[3-(4,4-diphenyl-1-piperidinyl)-propylcarbamoyl]-3-methyl-4-oxo-2-phenyl-4H-1-benzopyran methansulphonate]: the IC50 at α₁ receptors is 291 nM; on 5HT1A receptors, over 1000 nM. Further, the LD50 at 168 h in series [1] (setting [3]) was 128 mg/kg; in series [1] (setting [4]), at least 2000 mg/kg.

As to `CCOC(CN1CCN(c2ccccc2OC)CC1)c1cccc2c(=O)c(C)c(-c3ccccc3)oc12.Cl` (centres unmarked) [Example 22, 8-{1-ethoxy-2-[4-(2-methoxyphenyl)-1-piperazinyl]-ethyl}-3-methyl-4-oxo-2-phenyl-4H-1-benzopyran hydrochloride], the IC50 at α₁ receptors was 117 nM; on 5HT1A receptors (setting [2]), 48 nM. For the same compound, the LD50 at 168 h in series [1] (setting [3]) was over 500 mg/kg; in series [1] (setting [4]), over 2000 mg/kg.

As to `COc1ccccc1N1CCN(CCOc2cccc3c(=O)c(C)c(-c4ccccc4)oc23)CC1.Cl.O` [Example 39, 8-{2-[4-(2-methoxyphenyl)-1-piperazinyl]-ethoxy}-3-methyl-4-oxo-2-phenyl-4H-1-benzopyran hydrochloride hydrate], the half-maximal inhibitory concentration (IC50) is 90 nM at α₁ receptors and 170 nM on 5HT1A receptors (setting [2]). For the same compound, the values for the LD50 at 168 h in series [1] (setting [3]) and in series [1] (setting [4]) were over 1000 mg/kg and over 3000 mg/kg, respectively.

For `COc1ccccc1N1CCN(CCCN(C)c2cccc3c(=O)c(C)c(-c4ccccc4)oc23)CC1` [Example 35, 8-{N-methyl-3-[4-(2-methoxyphenyl)-1-piperazinyl]-propylamino}-3-methyl-4-oxo-2-phenyl-4H-1-benzopyran hydrochloride hemihydrate], the IC50 on α₁ receptors was 15 nM; on 5HT1A receptors (setting [2]), 8 nM. In addition, the LD50 at 168 h came to 329 mg/kg in series [1] (setting [3]) and 959 mg/kg in series [1] (setting [4]).

Regarding `COc1ccccc1N1CCN(CCNC(=O)/C=C/c2cccc3c(=O)c(C)c(-c4ccccc4)oc23)CC1` [Example 72, E-8-<2-{2-[4-(2-methoxyphenyl)-1-piperazinyl]-ethylcarbamoyl}-ethenyl>-3-methyl-4-oxo-2-phenyl-4H-1-benzopyran methanesulphonate 1.2 H₂0], the 50% inhibitory concentration (IC50) on α₁ receptors is 145 nM; on 5HT1A receptors (setting [2]), 111 nM. Also, the LD50 at 168 h in series [1] (setting [3]) is 479 mg/kg; in series [1] (setting [4]), over 2000 mg/kg.

As to `COc1ccccc1N1CCN(CCCCNS(=O)(=O)c2cccc3c(=O)c(C)c(-c4ccccc4)oc23)CC1.CS(=O)(=O)O.CS(=O)(=O)O` [Example 67, 8-{4-[4-(2-methoxyphenyl)-1-piperazinyl]-butylsulphamoyl}-3-methyl-4-oxo-2-phenyl-4H-1-benzopyran dimethanesulphonate], the IC50 on α₁ receptors and on 5HT1A receptors (setting [2]) was 4 nM each time. Also, the LD50 at 168 h in series [1] (setting [3]) is 508 mg/kg; in series [1] (setting [4]), 1870 mg/kg.

For `COc1ccccc1N1CCN(CCC(=O)N(C)c2cccc3c(=O)c(C)c(-c4ccccc4)oc23)CC1.CS(=O)(=O)O` [Example 63, 8-{N-methyl-3-[4-(2-methoxyphenyl)-1-piperazinyl]-propionamido}-3-methyl-4-oxo-2-phenyl-4H-1-benzopyran methanesulphonate], the concentration for half-maximal inhibition (IC50) on α₁ receptors was 194 nM; at 5HT1A receptors (setting [2]), 99 nM. For the same compound, the LD50 at 168 h in series [1] (setting [3]) came to 309 mg/kg; in series [1] (setting [4]) it was 479 mg/kg.

Turning to `COc1ccccc1N1CCN(CCN(Cc2cccc3c(=O)c(C)c(-c4ccccc4)oc23)C(C)=O)CC1.Cl` [Example 24, 8-{N-acetyl-2-[4-(2-methoxyphenyl)-1-piperazinyl]-ethylaminomethyl}-3-methyl-4-oxo-2-phenyl-4H-1-benzopyran hydrochloride], the half-inhibitory concentration (IC50) at α₁ receptors turned out to be 690 nM; at 5HT1A receptors (setting [2]), 212 nM. Moreover, the results for the LD50 at 168 h in series [1] (setting [3]) and in series [1] (setting [4]) were over 1000 mg/kg and over 3000 mg/kg, respectively.

For the compound `COc1ccccc1N1CCN(CCOC(=O)Cc2cccc3c(=O)c(C)c(-c4ccccc4)oc23)CC1.Cl.Cl` [Example 66, 8-{2-[4-(2-methoxyphenyl)-1-piperazinyl]-ethoxycarbonylmethyl}-3-methyl-4-oxo-2-phenyl-4H-1-benzopyran dihydrochloride], the IC50 came to 57 nM at α₁ receptors and 56 nM on 5HT1A receptors (setting [2]). Further, in series [1] (setting [4]), the LD50 at 168 h stood at 601 mg/kg.

Turning to `COc1ccccc1OCCNCCCNC(=O)c1cccc2c(=O)c(C)c(-c3ccccc3)oc12.Cl` [Example 14, 8-{3-[2-(2-methoxyphenoxy)-ethylamino]-propylcarbamoyl}-3-methyl-4-oxo-2-phenyl-4H-1-benzopyran hydrochloride], the half-inhibitory concentration (IC50) at α₁ receptors amounted to 61 nM; on 5HT1A receptors (setting [2]), 6 nM. Moreover, the LD50 at 168 h in series [1] (setting [3]) amounted to 140 mg/kg; in series [1] (setting [4]) it was 559 mg/kg.

As to `COc1ccccc1N1CCN(CCCC(=O)Nc2cccc3c(=O)c(C)c(-c4ccccc4)oc23)CC1` [Example 69, 8-{4-[4-(2-methoxyphenyl)-1-piperazinyl]-butyramido}-3-methyl-4-oxo-2-phenyl-4H-1-benzopyran methanesulphonate hemihydrate], the IC50 was found to be 16 nM on α₁ receptors and 87 nM at 5HT1A receptors (setting [2]). The LD50 at 168 h in series [1] (setting [3]) stood at 344 mg/kg.

Turning to `COc1ccccc1N1CCN(CCC(=O)c2cccc3c(=O)c(C)c(-c4ccccc4)oc23)CC1.Cl` [Example 4, 8-{3-[4-(2-methoxyphenyl)-1-piperazinyl]-1-oxopropyl}-3-methyl-4-oxo-2-phenyl-4H-1-benzopyran hydrochloride], the IC50 at α₁ receptors came out at 550 nM; on 5HT1A receptors (setting [2]), 55 nM. In addition, the results for the LD50 at 168 h in series [1] (setting [3]) and in series [1] (setting [4]) were 346 mg/kg and 1730 mg/kg, respectively.
